Measurements from patent US20210113498A1, “TOPICAL AND TRANSDERMAL DELIVERY OF AN IRON CHELATOR TO PREVENT AND TREAT CHRONIC WOUNDS” (TAUTONA GROUP IP HOLDING COMPANY, L.L.C., priority 2018, published 2021).

How the values were obtained:
HbSS BERK mice = test: Excisional wound healing in sickle cell mice; assay type: in vivo, mouse; conditions: 6 mm full-thickness excisional wounds, daily treatment, mean±s.e.m., in days
Source text: The proposed mechanism for healing was investigated using a sickle cell mouse study (Rodrigues et al. publication pending). In this study, transgenic sickle cell mouse model, HbSS-BERK, were used to determine the effectiveness of DIDP. […] They recapitulate human sickle cell disease including hemolysis, reticulocytosis, anemia, extensive organ damage, shortened life span and pain.
Mice. […] These mice simulate human sickle cell disease including hemolysis, reticulocytosis, anemia, extensive organ damage, shortened life span and pain26-28. HbSS-BERK mice were bred and phenotyped for human sickle hemoglobin. Genotyping for the knockout and hemoglobin transgenes was performed. Control mice (wild type) on a C57/Bl6 background [#000664] were also obtained.
DFO delivery device. A transdermal delivery system was used to deliver DFO into the dermal tissue of the mice. […]
Excisional wound healing. Five-month old male HbSS BERK and wild type mice were subjected to a quantitative and reproducible model of excisional wounding using an established protocol described in Galioano et al., Wound Repair Regen 12, 485-492, doi:10.1111/j.1067-1927.2004.12404.x (2004). […]
Wound treatment. […] Wound area was measured using Image J software (NIH). […]

[1] = systemic delivery (subcutaneous, intravenous, intramuscular) within approved dose limits; cited from earlier work
[2] = assay type: in vitro ADME, human
Source text: To study the capacity of an intradermal patch comprising an iron chelator, such as DFO, to deliver DFO into human dermis, a vertical Franz Diffusion Cell (FIG. 8) was used to evaluate the DIDP. Full thickness human skin samples obtained under Stanford University IRB approval were mounted between the two compartments of the diffusion cell with the stratum corneum facing the donor compartment. The DIDP was applied and isotonic phosphate buffer solution agitated with a magnetic stirrer and maintained at 37° C. by a circulating water jacket. Every hour, over the course of 15 hours, skin samples were removed, washed with phosphate buffer saline (PBS) and dried with an absorbent towel. The skin samples were frozen at −20° C. and cut with a microtome into 20 μm sections. The samples were analyzed for drug content spectrophotometrically at 560 nm (Shimadzu, Japan) and the relative DFO concentration was determined. Skin biopsies of the fresh full thickness skin samples used in the Franz cell experiment after DIDP application were processed for histology. Intracellular DFO-iron aggregates were made visible using ferrocyanide staining via a modified Prussian blue reaction as described previously. Skin samples were incubated overnight in 7% potassium ferrocyanide dissolved in 3% hydrochloric acid. […]

CC(=O)N(O)CCCCCNC(=O)CCC(=O)N(O)CCCCCNC(=O)CCC(=O)N(O)CCCCCN [DFO, deferoxamine]
Time to complete wound closure (HbSS BERK mice): 14.5 ± 0.6268
Toxicity in adult or pediatric patients [1]: no evidence of toxicity
Human skin permeation (stratum corneum / dermal accumulation) [2]: no permeation of the stratum corneum
